Data on 17 molecules can be found in patent US11098040B2, “Compounds and methods of use” (Ferro Therapeutics, Inc., priority 2018, dated 2021).

The subject of assay [1] is 786-O. In words: Cell proliferation (Alamar Blue) assay, 786-O renal cell carcinoma, with/without ferrostatin. The format is cell-based. Particulars: Homo sapiens. The gist of the method:
(§1)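 Cells seeded at 5000/well, 16-24 h, then exposed 24 h at 37° C to compound, 10-0.0005 μM in 3-fold dilutions, 1% DMSO final. Alamar Blue fluorescence (ex 540/em 590 nm) read after 1.5 h; IC50 from variable-slope sigmoidal fit.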
In general terms: Alamar Blue is a resazurin reagent that responds to reducing activity.

The test system of assay [2] is A431. In words: Cell proliferation (Alamar Blue) assay, A431. The format is cell-based. To be noted: Homo sapiens, A-431; Cell Line A431. The protocol:
Cells (SJSA-1, 786-O and A431) were seeded (5000 cells/100 μL/well) in 96-well tissue culture plate and incubated at 37° C./5% CO2 for 16-24 hours. The cells were then treated with compounds (25 μL of 5×). The compound concentrations were 10-0.0005 μM prepared in 3-fold serial dilutions with final DMSO concentration of 1%. The plates were then incubated for 24 h at 37° C./5% CO2 in a moist environment. Then Alamar Blue™ reagent (final concentration 1×-12.5 μL) was added to each well and incubated for 1.5 hours at 37° C./5% CO2. The plates were read on fluorescence reader at 540 nm excitation and 590 nm emission wavelengths. The IC50 values were subsequently determined using a sigmoidal dose-response curve (variable slope) in GraphPad Prism® 5 software.
The cell proliferation assays for the compounds shown Table 25 was performed according to the protocols described herein, including Examples 4 and 6.

Assay [3] concerns SJSA-1. Briefly: Cell proliferation (Alamar Blue) assay, SJSA-1 osteosarcoma, with/without ferrostatin. Particulars: Homo sapiens. Type of assay: cell-based, human. The gist of the method: as §1
Assay [4] relates to A549. Briefly: Cell viability assay, A549 cells. Type of assay: cell-based. To be noted: Homo sapiens, A549, Cell Line A549; read-out: IC50. The procedure, abridged: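 Growth of A549 cells was assessed with a cell viability assay. Cells were plated at 1,000-10,000 cells/well in 96-well plates and incubated overnight at 37° C. Nine-point 3-fold DMSO dilutions, starting from 30 μM and run in duplicate, were diluted into media (final DMSO 0.25% or less). After 96 hours, CellTiter Glo luminescence was read, inhibition was calculated against DMSO controls, and IC50 was fitted in XL-fit.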

Setting [5] is: 786-0, 24 h, Alamar Blue, 24 h, 2 μM ferrostatin, read-out: 786-O (IC50, μM) 2 μM Ferrostatin.
The mark [6] stands for this setting: 786-0, 24 h, Alamar Blue, 24 h, without ferrostatin, read-out: 786-O (IC50, μM) Without Ferrostatin.
The mark [7] stands for this setting: 786-0, Cell Line 786-O, read-out: IC50.
[8] abbreviates: SJSA-1, 24 h, Alamar Blue, 24 h, 2 μM ferrostatin, read-out: SJSA-1 (IC50, μM) 2 μM Ferrostatin.
Where [9] appears, read: SJSA-1, 24 h, Alamar Blue, 24 h, without ferrostatin, read-out: SJSA-1 (IC50, μM) Without Ferrostatin.
[10] abbreviates: SJSA-1, Cell Line SJSA-1, read-out: IC50.

Each structure is given as a SMILES string. Read-outs that look alike come from different tables or passages of the source. Where only a bound is given, the exact number is not on record here.

As a reminder, the IC50 is the concentration needed to halve the response being measured. As for `C[C@H]1Cc2c([nH]c3ccc(Cl)cc23)[C@H](c2ccc(S(=O)(=O)NC3CC3)cc2F)N1C(=O)CCl` [Compound 172, 4-((1S,3S)-6-chloro-2-(2-chloroacetyl)-3-methyl-2,3,4,9-tetrahydro-1H-pyrido[3,4-b]indol-1-yl)-N-cyclopropyl-3-fluorobenzenesulfonamide], the IC50 in assay [1] (setting [5]) was determined as 6.76 µM; in assay [1] (setting [6]), 0.023 µM; in assay [1] (setting [7]), 0.023 µM; in assay [2], 2110 nM; in assay [3] (setting [8]), 4.1 µM; in assay [3] (setting [9]) it was 0.023 µM. Further, the IC50 in assay [3] (setting [10]) worked out at 0.023 µM.
Regarding `C[C@H]1Cc2c([nH]c3ccccc23)C(c2ccc(-n3ccnc3)cc2)N1C(=O)CCl` (stereo partly drawn) [Compound 163, 1-((3S)-1-(4-(1H-imidazol-1-yl)phenyl)-3-methyl-1,3,4,9-tetrahydro-2H-pyrido[3,4-b]indol-2-yl)-2-chloroethan-1-one], the IC50 was 6.4 µM in assay [1] (setting [7]), > 10000 nM in assay [2] and > 10 µM in assay [3] (setting [10]).
Regarding `Cc1cc(N2CCOCC2)ccc1[C@@H]1c2[nH]c3ccccc3c2C[C@H](C)N1C(=O)CCl` [Compound 128, 2-chloro-1-((1R,3S)-3-methyl-1-(2-methyl-4-morpholinophenyl)-1,3,4,9-tetrahydro-2H-pyrido[3,4-b]indol-2-yl)ethan-1-one], the IC50 in assay [1] (setting [7]) is 0.188 µM; in assay [2], > 10000 nM; in assay [3] (setting [10]), 0.184 µM.
With `C[C@H]1Cc2c([nH]c3ccccc23)[C@H](c2ccc(C(=O)Nc3ccccn3)cc2)N1C(=O)CCl` (single isomer, unassigned) [Compound 219], the IC50 in assay [1] (setting [7]) was found to be 0.051 µM; in assay [2], 1900 nM; in assay [3] (setting [10]) it was 0.036 µM.
As to `C[C@H]1Cc2c([nH]c3ccccc23)[C@H](c2ccc(N3CC4(COC4)C3)cc2)N1C(=O)CCl` [Compound 213, 1-((1S,3S)-1-(4-(2-oxa-6-azaspiro[3.3]heptan-6-yl)phenyl)-3-methyl-1,3,4,9-tetrahydro-2H-pyrido[3,4-b]indol-2-yl)-2-chloroethan-1-one], the IC50 in assay [1] (setting [5]) came to 5.62 µM; in assay [1] (setting [6]), 0.066 µM; in assay [1] (setting [7]), 0.066 µM; in assay [2] it was 1850 nM; in assay [3] (setting [8]) it was 4.79 µM; in assay [3] (setting [9]), 0.066 µM. Further, the IC50 in assay [3] (setting [10]) was 0.066 µM.
`C[C@H]1Cc2c([nH]c3ccccc23)[C@@H](c2ccc(N3CCOCC3)cc2F)N1C(=O)CCl` [Compound 129]: the figures for the IC50 in assay [1] (setting [7]), in assay [2] and in assay [3] (setting [10]) were 4.2 µM, 4400 nM and 4.4 µM, respectively.
On the same counts, the results for `C#CC(=O)N1[C@@H](c2ccc(F)cc2)c2[nH]c3ccccc3c2C[C@@H]1C(=O)OC` [Compound 146, methyl (1S,3R)-1-(4-fluorophenyl)-2-propioloyl-2,3,4,9-tetrahydro-1H-pyrido[3,4-b]indole-3-carboxylate] are 0.023 µM, 2400 nM and 0.03 µM.
On the same counts, the results for `C#CC(=O)N1[C@@H](CCCC)Cc2c([nH]c3ccc(F)cc23)[C@@H]1c1ccc(S(=O)(=O)NC2CCC2)cc1` [Compound 143, 4-((1S,3S)-3-butyl-6-fluoro-2-propioloyl-2,3,4,9-tetrahydro-1H-pyrido[3,4-b]indol-1-yl)-N-cyclobutylbenzenesulfonamide] are 0.009 µM, 2700 nM and 0.009 µM.
On the same counts, the results for `C#CC(=O)N1[C@@H](COC)Cc2c([nH]c3ccccc23)[C@@H]1c1ccc(S(=O)(=O)NC2CC2)cc1F` [Compound 144] are 0.007 µM, 3500 nM and 0.025 µM.
As to `C#CC(=O)N1[C@@H](CCCC)Cc2c([nH]c3ccccc23)[C@@H]1c1ccc(S(=O)(=O)NC2CC2)cc1F` [Compound 167, 4-((1S,3S)-3-butyl-2-propioloyl-2,3,4,9-tetrahydro-1H-pyrido[3,4-b]indol-1-yl)-N-cyclopropyl-3-fluorobenzenesulfonamide], the IC50 in assay [1] (setting [5]) stood at 2 µM; in assay [1] (setting [6]), 0.005 µM; in assay [1] (setting [7]), 0.005 µM; in assay [2], 1930 nM; in assay [3] (setting [8]), 4.01 µM; in assay [3] (setting [9]), 0.011 µM. The IC50 in assay [3] (setting [10]) was found to be 0.011 µM.
On to `Cc1cc(N2CCOCC2)ccc1[C@H]1c2[nH]c3ccccc3c2C[C@H](C)N1C(=O)CCl` [Compound 234, 2-chloro-1-((1S,3S)-3-methyl-1-(2-methyl-4-morpholinophenyl)-1,3,4,9-tetrahydro-2H-pyrido[3,4-b]indol-2-yl)ethan-1-one], for which the IC50 in assay [4] was 3250 nM; in assay [1] (setting [7]), 4.17 µM; in assay [2], 8000 nM; in assay [3] (setting [10]), 3.92 µM.
Turning to `CCCC[C@H]1Cc2c([nH]c3ccc(F)cc23)[C@H](c2ccc(S(=O)(=O)NC3CCC3)cc2)N1C(=O)CCl` [Compound 145, 4-((1S,3S)-3-butyl-2-(2-chloroacetyl)-6-fluoro-2,3,4,9-tetrahydro-1H-pyrido[3,4-b]indol-1-yl)-N-cyclobutylbenzenesulfonamide], the IC50 in assay [1] (setting [7]) stood at 0.003 µM; in assay [2], 4600 nM; in assay [3] (setting [10]), 0.004 µM.
`CC1CN(c2ccc([C@H]3c4[nH]c5ccccc5c4C[C@H](C)N3C(=O)CCl)cc2)CCO1` (stereo partly drawn) [Compound 215]: the IC50 in assay [1] (setting [5]) turned out to be 9.88 µM; in assay [1] (setting [6]) it was 0.018 µM; in assay [1] (setting [7]) it was 0.018 µM; in assay [2], 8220 nM; in assay [3] (setting [8]), 9.41 µM; in assay [3] (setting [9]), 0.028 µM. The concentration for half-maximal inhibition (IC50) in assay [3] (setting [10]) amounted to 0.028 µM.
On to `C[C@H]1Cc2c([nH]c3ccccc23)[C@H](c2ccc(N3CCOCC3)cc2F)N1C(=O)CCl` [Compound 233], for which the IC50 in assay [4] is 1970 nM; in assay [1] (setting [7]) it was 0.0337 µM; in assay [2] it was 4800 nM; in assay [3] (setting [10]), 0.0443 µM.
In the case of `C[C@H]1Cc2c([nH]c3ccccc23)[C@H](c2ccc3c(c2)CNC3=O)N1C(=O)CCl` [Compound 168, 5-((1S,3S)-2-(2-chloroacetyl)-3-methyl-2,3,4,9-tetrahydro-1H-pyrido[3,4-b]indol-1-yl)isoindolin-1-one], the IC50 in assay [1] (setting [5]) was 3.31 µM; in assay [1] (setting [6]), 0.487 µM; in assay [1] (setting [7]) it was 0.487 µM; in assay [2], 5090 nM; in assay [3] (setting [8]), > 10 µM; in assay [3] (setting [9]) it was 0.56 µM. Further, the IC50 in assay [3] (setting [10]) amounted to 0.56 µM.
With `COC[C@H]1Cc2c([nH]c3ccccc23)[C@H](c2ccc(C(=O)NC3CC3)cc2F)N1C(=O)CCl` [Compound 166, 4-((1S,3R)-2-(2-chloroacetyl)-3-(methoxymethyl)-2,3,4,9-tetrahydro-1H-pyrido[3,4-b]indol-1-yl)-N-cyclopropyl-3-fluorobenzamide], the IC50 in assay [1] (setting [5]) was 9.52 µM; in assay [1] (setting [6]) it was 0.008 µM; in assay [1] (setting [7]), 0.008 µM; in assay [2], > 10000 nM; in assay [3] (setting [8]), > 10 µM; in assay [3] (setting [9]), 0.01 µM. Further, the IC50 in assay [3] (setting [10]) was 0.01 µM.
`C[C@H]1Cc2c([nH]c3ccccc23)[C@H](c2ccc(N3CCS(=O)(=O)CC3)cc2)N1C(=O)CCl` [Compound 210, 2-chloro-1-((1S,3S)-1-(4-(1,1-dioxidothiomorpholino)phenyl)-3-methyl-1,3,4,9-tetrahydro-2H-pyrido[3,4-b]indol-2-yl)ethan-1-one]: the IC50 in assay [1] (setting [5]) is > 10 µM; in assay [1] (setting [6]), 0.062 µM; in assay [1] (setting [7]), 0.062 µM; in assay [2], 1550 nM; in assay [3] (setting [8]), 9.55 µM; in assay [3] (setting [9]), 0.081 µM. In addition, the IC50 in assay [3] (setting [10]) is 0.081 µM.
